In ChEMBL document CHEMBL4316625, “Double prodrugs of a fosmidomycin surrogate as antimalarial and antitubercular agents” (Bioorg Med Chem Lett, 2019):

Tested on: Mycobacterium tuberculosis
Test: Antitubercular activity against Mycobacterium tuberculosis H37Ra ATCC 25177 transformed with pSMT1 luciferase reporter plasmid reduction in bacterial multiplication incubated for 7 days by luminometric assay
Format: functional, organism-based
Conditions: H37Ra ATCC 25177, 168 h

Row | Structure (SMILES) | MIC [µM]
1 | CN(OC(=O)Nc1ccccc1)C(=O)CCCP(=O)(OCOC(=O)C(C)(C)C)OCOC(=O)C(C)(C)C | > 64
2 | CC(=O)ON(C)C(=O)CCCP(=O)(OCOC(=O)C(C)(C)C)OCOC(=O)C(C)(C)C | > 64
